Assay [1] deals with Cyclin-dependent kinase 2/cyclin A (Homo sapiens, UniProt P24941). Kind of assay: Inhibition of human recombinant CDK2/Cyclin A2 using fluoresceinyl-Ahx-Pro-Val-Lys-Arg-Arg-Leu-Phe-Gly tracer peptide as substrate after 45 mins by fluorescent polarization binding assay. It counts as protein-complex assay.
Assay [2] addresses Cyclin-dependent kinase 4/cyclin D1 (Homo sapiens, UniProt P11802). Kind of assay: Inhibition of human recombinant CDK4/Cyclin D1 using fluoresceinyl-Ahx-Pro-Val-Lys-Arg-Arg-Leu-(3ClPhe)-Gly tracer peptide as substrate after 45 mins by fluorescent polarization binding assay.

Peptide text beside a SMILES is read from it. * marks the point of attachment. X14 = Cc1nc(C(=O)*)nn1-c1cc(Cl)cc(Cl)c1; X17 = Cc1cc(C(=O)*)nn1-c1cc(Cl)cc(Cl)c1; X18 = O=C(c1ccc(-c2cc(Cl)cc(Cl)c2)o1)*; X9 = O=C(c1ccn(-c2cc(Cl)cc(Cl)c2)c1)*; X13 = O=C(c1c[nH]c(-c2cccc(F)c2)n1)*; X11 = Cc1cc(C(=O)*)nn1-c1ccc(Cl)cc1; X12 = Cc1nc(C(=O)*)nn1-c1ccc(Cl)cc1; X16 = Cc1nc(C(=O)*)nn1-c1cccc(Cl)c1; X15 = O=C(c1ccn(-c2ccc(Cl)cc2)c1)*; X2 = Cc1cc(C(=O)*)nn1-c1cccc(Cl)c1; X3 = COc1ccc(-n2nc(C(=O)*)cc2C)cc1; X6 = COc1cccc(-n2nc(C(=O)*)cc2C)c1; X1 = Cc1cccc(-n2nc(C(=O)*)nc2C)c1; X4 = O=C(c1ccc(-c2cccc(Cl)c2)o1)*; X5 = O=C(c1csc(-c2ccc(Cl)cc2)n1)*; X7 = Cc1cc(C(=O)*)nn1-c1cccc(F)c1; X10 = Cc1cc(C(=O)*)nn1-c1ccccc1; X8 = Cn1cc(C(=O)*)nc1-c1ccccc1

Sequence of Cyclin-dependent kinase 4/cyclin D1 (P11802 whole entry): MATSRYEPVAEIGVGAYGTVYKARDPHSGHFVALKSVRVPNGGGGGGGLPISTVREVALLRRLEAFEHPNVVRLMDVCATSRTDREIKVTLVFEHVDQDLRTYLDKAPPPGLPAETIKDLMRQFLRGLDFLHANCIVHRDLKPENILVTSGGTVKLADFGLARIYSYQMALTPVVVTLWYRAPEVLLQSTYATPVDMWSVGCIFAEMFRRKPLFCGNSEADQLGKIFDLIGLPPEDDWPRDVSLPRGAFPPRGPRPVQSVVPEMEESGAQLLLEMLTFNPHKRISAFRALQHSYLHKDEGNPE
Sequence of Cyclin-dependent kinase 4/cyclin D1 (P24385 whole entry, further chain): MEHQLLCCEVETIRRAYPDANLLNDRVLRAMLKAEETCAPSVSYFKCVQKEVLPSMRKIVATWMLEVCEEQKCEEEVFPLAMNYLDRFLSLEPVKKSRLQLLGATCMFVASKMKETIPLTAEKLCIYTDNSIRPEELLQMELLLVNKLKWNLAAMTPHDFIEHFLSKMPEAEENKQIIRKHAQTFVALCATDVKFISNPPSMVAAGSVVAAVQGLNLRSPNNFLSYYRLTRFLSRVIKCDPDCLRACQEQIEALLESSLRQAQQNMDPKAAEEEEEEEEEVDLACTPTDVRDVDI

Take `Cc1nc(C(=O)N[C@@H](CCCNC(=N)N)C(=O)N[C@@H](CC(C)C)C(=O)NCc2cccc(Oc3ccccc3)c2)nn1-c1ccc(Cl)cc1`: the figures for the IC50 in assay [1] and in assay [2] were 106 µM and more than 200 µM, respectively.

Regarding `Cc1nc(C(=O)N[C@@H](CCCNC(=N)N)C(=O)N[C@@H](CC(C)C)C(=O)NCc2cc(Oc3cccc(F)c3)ccn2)nn1-c1ccc(Cl)cc1`, the IC50 (usually the concentration at which inhibition is half-maximal) in assay [1] is 53.2 µM; in assay [2], more than 200 µM.

In the case of `Cc1nc(C(=O)N[C@@H](CCCNC(=N)N)C(=O)N[C@@H](CC(C)C)C(=O)NCc2cc(Oc3ccc(F)cc3)ccn2)nn1-c1ccc(Cl)cc1`, the IC50 in assay [1] was 18.1 µM; in assay [2], more than 200 µM.

For the molecule `Cc1nc(C(=O)N[C@@H](CCCNC(=N)N)C(=O)N[C@@H](CC(C)C)C(=O)NCc2cc(Oc3ccc(Cl)cc3)ccn2)nn1-c1ccc(Cl)cc1`, the IC50 in assay [1] is 54.4 µM; in assay [2], more than 500 µM.

Take `Cc1ccccc1Oc1ccnc(CNC(=O)[C@H](CC(C)C)NC(=O)[C@H](CCCNC(=N)N)NC(=O)c2nc(C)n(-c3ccc(Cl)cc3)n2)c1`: the IC50 in assay [1] was 60 µM; in assay [2], more than 500 µM.

In the case of `Cc1nc(C(=O)N[C@@H](CCCNC(=N)N)C(=O)N[C@@H](CC(C)C)C(=O)NCc2cc(Oc3cccc(Cl)c3)ccn2)nn1-c1cc(Cl)cc(Cl)c1`, the IC50 is 61 µM in assay [1] and 120 µM in assay [2].

Regarding `Cc1nc(C(=O)N[C@@H](CCCNC(=N)N)C(=O)N[C@@H](CC(C)C)C(=O)NCc2cccc(Oc3cc(Cl)cc(Cl)c3)c2)nn1-c1cc(Cl)cc(Cl)c1`, the IC50 in assay [1] was more than 180 µM; in assay [2] it was 120 µM.

As for `Cc1nc(C(=O)N[C@@H](CCCNC(=N)N)C(=O)N[C@@H](CC(C)C)C(=O)NCc2cc(Oc3ccc(F)c(F)c3)ccn2)nn1-c1cc(Cl)cc(Cl)c1`, the IC50 in assay [1] and in assay [2] was more than 180 µM throughout.

For `CC[C@H](C)[C@H](NC(=O)[C@H](CC(C)C)NC(=O)[C@H](CCCNC(=N)N)NC(=O)c1nc(C)n(-c2cccc(C)c2)n1)C(=O)N[C@@H](Cc1ccccc1)C(N)=O` (X1-RLIF-NH2), the figures for the IC50 in assay [1] and in assay [2] were 13.8 µM and 51.1 µM, respectively.

As for `CC[C@H](C)[C@H](NC(=O)[C@H](CC(C)C)NC(=O)[C@H](CCCNC(=N)N)NC(=O)c1cc(C)n(-c2cccc(Cl)c2)n1)C(=O)N[C@@H](Cc1ccccc1)C(N)=O` (X2-RLIF-NH2), the IC50 in assay [1] is 11.9 µM; in assay [2], 70.3 µM.

With `CC[C@H](C)[C@H](NC(=O)[C@H](CC(C)C)NC(=O)[C@H](CCCNC(=N)N)NC(=O)c1cc(C)n(-c2ccc(OC)cc2)n1)C(=O)N[C@@H](Cc1ccccc1)C(N)=O` (X3-RLIF-NH2), the concentration for half-maximal inhibition (IC50) in assay [1] and in assay [2] was more than 180 µM in each case.

With `CC[C@H](C)[C@H](NC(=O)[C@H](CC(C)C)NC(=O)[C@H](CCCNC(=N)N)NC(=O)c1ccc(-c2cccc(Cl)c2)o1)C(=O)N[C@@H](Cc1ccccc1)C(N)=O` (X4-RLIF-NH2), the IC50 in assay [1] and in assay [2] was more than 180 µM each time.

For `CC[C@H](C)[C@H](NC(=O)[C@H](CC(C)C)NC(=O)[C@H](CCCNC(=N)N)NC(=O)c1csc(-c2ccc(Cl)cc2)n1)C(=O)N[C@@H](Cc1ccccc1)C(N)=O` (X5-RLIF-NH2), the concentration for half-maximal inhibition (IC50) in assay [1] and in assay [2] was more than 180 µM each time.

Consider `CC[C@H](C)[C@H](NC(=O)[C@H](CC(C)C)NC(=O)[C@H](CCCNC(=N)N)NC(=O)c1cc(C)n(-c2cccc(OC)c2)n1)C(=O)N[C@@H](Cc1ccccc1)C(N)=O` (X6-RLIF-NH2), for which the IC50 in assay [1] was 64.1 µM; in assay [2], more than 100 µM.

`CC[C@H](C)[C@H](NC(=O)[C@H](CC(C)C)NC(=O)[C@H](CCCNC(=N)N)NC(=O)c1cc(C)n(-c2cccc(F)c2)n1)C(=O)N[C@@H](Cc1ccccc1)C(N)=O` (X7-RLIF-NH2): the IC50 in assay [1] is 29.6 µM; in assay [2], 65.9 µM.

In the case of `CC[C@H](C)[C@H](NC(=O)[C@H](CC(C)C)NC(=O)[C@H](CCCNC(=N)N)NC(=O)c1cn(C)c(-c2ccccc2)n1)C(=O)N[C@@H](Cc1ccccc1)C(N)=O` (X8-RLIF-NH2), the IC50 in assay [1] and in assay [2] was more than 180 µM throughout.

Consider `CC[C@H](C)[C@H](NC(=O)[C@H](CC(C)C)NC(=O)[C@H](CCCNC(=N)N)NC(=O)c1ccn(-c2cc(Cl)cc(Cl)c2)c1)C(=O)N[C@@H](Cc1ccccc1)C(N)=O` (X9-RLIF-NH2), for which the concentration for half-maximal inhibition (IC50) in assay [1] and in assay [2] was more than 180 µM each time.

In the case of `CC[C@H](C)[C@H](NC(=O)[C@H](CC(C)C)NC(=O)[C@H](CCCNC(=N)N)NC(=O)c1cc(C)n(-c2ccccc2)n1)C(=O)N[C@@H](Cc1ccccc1)C(N)=O` (X10-RLIF-NH2), the IC50 is 40.3 µM in assay [1] and 54.2 µM in assay [2].

Take `CC[C@H](C)[C@H](NC(=O)[C@H](CC(C)C)NC(=O)[C@H](CCCNC(=N)N)NC(=O)c1cc(C)n(-c2ccc(Cl)cc2)n1)C(=O)N[C@@H](Cc1ccccc1)C(N)=O` (X11-RLIF-NH2): the half-maximal inhibitory concentration (IC50) in assay [1] is 33.7 µM; in assay [2], 54.7 µM.

`CC[C@H](C)[C@H](NC(=O)[C@H](CC(C)C)NC(=O)[C@H](CCCNC(=N)N)NC(=O)c1nc(C)n(-c2ccc(Cl)cc2)n1)C(=O)N[C@@H](Cc1ccccc1)C(N)=O` (X12-RLIF-NH2): the figures for the IC50 in assay [1] and in assay [2] were 11.5 µM and 12 µM, respectively.

Take `CC[C@H](C)[C@H](NC(=O)[C@H](CC(C)C)NC(=O)[C@H](CCCNC(=N)N)NC(=O)c1c[nH]c(-c2cccc(F)c2)n1)C(=O)N[C@@H](Cc1ccccc1)C(N)=O` (X13-RLIF-NH2): the IC50 in assay [1] was found to be 34.3 µM; in assay [2], 68.5 µM.

Take `CC[C@H](C)[C@H](NC(=O)[C@H](CC(C)C)NC(=O)[C@H](CCCNC(=N)N)NC(=O)c1nc(C)n(-c2cc(Cl)cc(Cl)c2)n1)C(=O)N[C@@H](Cc1ccccc1)C(N)=O` (X14-RLIF-NH2): the figures for the IC50 in assay [1] and in assay [2] were 4 µM and 27.3 µM, respectively.

As for `CC[C@H](C)[C@H](NC(=O)[C@H](CC(C)C)NC(=O)[C@H](CCCNC(=N)N)NC(=O)c1ccn(-c2ccc(Cl)cc2)c1)C(=O)N[C@@H](Cc1ccccc1)C(N)=O` (X15-RLIF-NH2), the IC50 in assay [1] and in assay [2] was more than 180 µM each time.

As for `CC[C@H](C)[C@H](NC(=O)[C@H](CC(C)C)NC(=O)[C@H](CCCNC(=N)N)NC(=O)c1nc(C)n(-c2cccc(Cl)c2)n1)C(=O)N[C@@H](Cc1ccccc1)C(N)=O` (X16-RLIF-NH2), the concentration for half-maximal inhibition (IC50) in assay [1] worked out at 5.7 µM; in assay [2], 26.5 µM.

As for `CC[C@H](C)[C@H](NC(=O)[C@H](CC(C)C)NC(=O)[C@H](CCCNC(=N)N)NC(=O)c1cc(C)n(-c2cc(Cl)cc(Cl)c2)n1)C(=O)N[C@@H](Cc1ccccc1)C(N)=O` (X17-RLIF-NH2), the IC50 is 21.8 µM in assay [1] and more than 100 µM in assay [2].

`CC[C@H](C)[C@H](NC(=O)[C@H](CC(C)C)NC(=O)[C@H](CCCNC(=N)N)NC(=O)c1ccc(-c2cc(Cl)cc(Cl)c2)o1)C(=O)N[C@@H](Cc1ccccc1)C(N)=O` (X18-RLIF-NH2): the IC50 in assay [1] and in assay [2] was more than 180 µM throughout.

(Values after ChEMBL document CHEMBL2321725, “Optimization of non-ATP competitive CDK/cyclin groove inhibitors through REPLACE-mediated fragment assembly” (J Med Chem, 2013).)
